# Test system: cabbage root fly
# Assay: Swede field trials in Norway, cabbage root fly damage
# Assay type: in vivo
# Description: An extensive program of non-public field trials, which included five crops of swede were carried out. The field trials design was based around multiple applications of either ECOguard® liquid (garlic juice concentrate) or granules (wood flour granules impregnated with the garlic juice concentrate) and in four out of the five swede trials was referenced against Dimethoate as a standard.
smiles,measurement,setting,value
CNC(=O)CSP(=S)(OC)OC [Dimethoate],mean saleable yield (cat 1 + 2),Ga-Fa,7.27 kg/sample
same,mean saleable yield (cat 1 + 2),Mid-Troms,5.84 kg/sample
same,mean saleable yield (cat 1 + 2),Sor Ost,22.16 kg/sample
same,mean saleable yield (cat 1 + 2),Toten,11.95 kg/sample
same,"Difference of Means, trt=1 (control) subtracted",in vivo,−0.3100
same,cabbage root fly damage versus control,in vivo,significantly reduced damage
same,"root damage index (RDI), % Change",in vivo,−5.8%
same,"root damage index (RDI), Mean",in vivo,43.90
same,"mean saleable yield (cat 1 + 2), Mean",mean of four sites,11.95 kg/sample
same,"mean saleable yield, % Change",mean of four sites versus control,+8%

# From US20080194666A1, “Combination Treatment Methods” (MEDICAL RESEARCH COUNCIL, priority 2005, published 2008)
